The numbers were not newly measured in patent US20250255845A1, “USE OF INTERLEUKIN (IL)-17A INHIBITOR IN PREPARATION OF MEDICAMENT FOR TREATING INFLAMMATORY DISEASE” (Xiangnan University, priority 2024, published 2025), which cites them from elsewhere.

This data set has as its system endothelial cells. To be noted: CN101947215A; cited from earlier work.

As to `COc1ccc(-c2cc(=O)c3c(OC)c(OC)c(OC)c(OC)c3o2)cc1OC` [nobiletin], the “proliferation of endothelial cells / angiogenesis” value was “inhibit the proliferation of endothelial cells”.
For `COc1ccc(-c2cc(=O)c3c(OC)c(OC)c(OC)cc3o2)cc1OC` [sinensetin], the “proliferation of endothelial cells / angiogenesis” value is reported as “inhibit the proliferation of endothelial cells”.
